Assay results published in patent US5800838A, “Composition that inhibits or destroys at least one unicellular living organism containing fluorine F- and Lithium li+” (priority 1987, dated 1998).
Converted amounts (≈) assume the structure as drawn. Where two headings read alike, the source gives them in different places.

Experiments:
staphylococcus aeurus = type: cell-based; settings: Fli 4 ppm
Protocol: Strains Gram+ and Gram- (wild-type hospital) having a resistant phenotype vis a vis standard firstly and secondly used antibiotherapy were experimented on activated antibiotics.
250 experiments were conducted on the following strains: Streptococcus group B, C, D, F, G, Staphylococcus aureus, Staphylococcus epidermitis, Klebsiella pneumoniae, Klebsiella spirochete, Klebsiella oxytoca, Proteus mirabilis, Serratia marcescens, Escherichia coli, Citrobacter freundii, Enterobacter cloacae, Enterobacter calcoaceticus, Salmonella spirochete, Salmonella typhimurium, Pseudomonas aeruginosa, Haemophilus influenzae, Haemophilus sphrophilus, Acinetobacter calcoaeticus. […]

Escherichia coli = assay: Activity on wild-type hospital strains responsible for skin infections; type: cell-based; settings: Escherichia coli, read-out: 100% inhibitory concentration
Group C streptococcus = assay: as above; type: cell-based; settings: Streptococcus
spermatozoa [1] = settings: alone; cited from earlier work
spermatozoa [2] = assay: SANDERS-CRAMER total spermicidal test according to IPPF standards; type: cell-based
Gardnerella vaginalis = assay: Number of strains inhibited, bactericidal substance incorporated in culture medium (first trial); type: cell-based; settings: NaF or LiF 1 mg/l where added
Protocol: In the first trial, the sample of bactericidal substance was incorporated directly in the specific culture edium of the microorganism. A concentration series of the bactericidal substance was prepared in the geometric ratio of 2, from 400 μg/ml to 1.56 μg/ml. The cell concentration used in the seeding of the Petri dishes was […]. A 24-hour incubation was performed at 37° C. and then, for each wild-type strain tested, the concentration of primary principle destroying all the microorganisms (see method of Professor F. CATALAN et al., Institut A. FOURNIER, PARIS) was determined. The trail was performed on 32 wild-type strains of Gardnerella vaginalis originating from hospital sources and with benzalkonium chloride and then nonoxinol 9 as active principles, and with sodium fluoride NaF at a concentration of 1 mg/l and then lithium fluoride LiF at a concentration of 1 mg/l as activating principles.

Pseudomonas aeruginosa [3] = assay: MIC on 200 wild-type strains of Pseudomonas aeruginosa (Examples 19 and 20); type: cell-based
Protocol: With the same methodology as above, the MIC values of benzalkonium chloride alone, in the presence of the KATHON CG (registered trademark) preservative (1 mg/l), and then in the presence of KATHON CG (registered trademark) (1 mg/l) and lithium fluoride (1 mg/l), were determined. 200 wild-type strains of Pseudomonas aeruginosa were tested.
The same trial as in Example 19 was performed, but with nonoxinol 9 as the primary active principle: 200 wild-type strains of Pseudomonas aeruginosa were also tested.

[4] = tested on: pseudomonas aeruginosa and Escherichia coli; type: cell-based
From the text: It is known that a strain develops a resistance against an antibiotic substance with which it is left in contact, by a phenotypical mutation procedure.
This phenomena has been studied on pseudomonas aeruginosa and Escherichia coli (wild-type hospital strains) which commonly develop resistance against aminosides. The antibiotic substance choosen was thus gentamicine which is an aminoside antibiotic.
And the growth of the resistance was studied with gentamicine alone, then with gentamicine in presence of Fli.
The trial was conducted on 12 days, and the MIC of gentamicine alone and of gentamicine in presence of Fli (4 ppm) was determined each day on transportplates in liquid medium with a serie of dilution in Mueller/Hinton agar.
The MBC (Minimal Bactericide Concentration) was also determined from the solution after determination of the MIC seeded on agar adapted to the strain. The MBC is read for a percentage of survivors less than 0,20%.

salmonella spirochete = assay: "Time killing curve", optical density at 600 nm; type: cell-based; settings: Fli 32 ppm
Protocol: (§1) The kinetics of the bacterial growth of serratia marcescens and salmonella spirochete has been studied with the "Time killing curve" methodology, for gentamicine (64 ppm) alone, Fli (32 ppm) and gentamicine (64 ppm) in presence of Fli (32 ppm). The bacterial growth is determined by spectrophotometric reading of the optical density for a wavelength of 600 nm.
(§2) The following table illustrates the optical density (1/100) obtained: […]

serratia marcescens [5] = assay: "Time killing curve", optical density at 600 nm; type: cell-based; settings: Fli 32 ppm
Protocol: as §1, §2

serratia marcescens [6] = assay: MIC of gentamicine, inclined agar with concentration gradient; type: cell-based
Protocol: (§3) The strains used were wild-type hospital strains having a resistant phenotype as regards gentamicine: pseudomonas aeruginosa, proteus mirabilis, serratia marcescens.
(§4) The phenotype of the strains was determined by diffusion in gradient on selective agar. Then, each group of strains having the same phenotype (resistant or sensible) was seeded on inclined agar having a gradient of concentration of the composition.
(§5) This methodology is explained by SZYBALSKI and BRYSON in "Selection de mutants resistant aux antibiotiques", L'antibiogramme, Vigot, p. 259-260.
(§6) The results are shown in the following table illustrating the MIC of gentamicine (aminoglycoside antibiotic).
(§7) x/y means a concentration read between x ppm and y ppm.

Pseudomonas aeruginosa [7] = assay: as above; type: cell-based; settings: in presence of Fli at 16; RESISTANT strains
Protocol: as §3, §4, §5, §6, §7

Klebsiella pneumoniae = assay: "chess" test, dilution in liquid medium, Trial 3; type: cell-based
From the text: (§8) Substance A was gentamicine
The strain was Klebsiella pneumoniae (wild-type hospital strain)

Pseudomonas aeruginosa [8] = assay: "chess" test, dilution in liquid medium, Trial 4; type: cell-based
From the text: as §8
The strain was pseudomonas aeruginosa (wild-type hospital resistant strain)

proteus mirabilis = assay: "chess" test, dilution in liquid medium, Trial 2; type: cell-based
From the text: as §8
The strain was a very resistant proteus mirabilis (wild-type hospital)

[9] = A (gentamicine) in presence of B (Fli)

CC[C@H]1OC(=O)[C@H](C)[C@@H](O[C@H]2C[C@@](C)(OC)[C@@H](O)[C@H](C)O2)[C@H](C)[C@@H](O[C@@H]2O[C@H](C)C[C@H](N(C)C)[C@H]2O)[C@](C)(O)C[C@@H](C)C(=O)[C@H](C)[C@@H](O)[C@]1(C)O [ERYTHROMYCIN, erythromycin]
phenotype in presence of Fli (staphylococcus aeurus): the resistant phenotype was not changed
MIC (Escherichia coli; alone): > 64 µg/mL
MIC (Escherichia coli; in the presence of LiF 8 ppm): 32 µg/mL
MIC (Group C streptococcus; read-out: 100% inhibitory concentration, alone): > 0.25 µg/mL
MIC (Group C streptococcus; read-out: 100% inhibitory concentration, in the presence of LiF 4 ppm): 0.125 µg/mL

F [F^- ions]
MIC (minimal inhibitory concentration) (spermatozoa [1]): 5 ppm
MIC, equivalent in % (spermatozoa [1]): 0.0005%

[Li+] [Li^+ ions]
spermicidal effect (spermatozoa [2]; in words): A spermicidal effect

CCCCCCCCCc1ccc(OCCOCCOCCOCCOCCOCCOCCOCCOCCO)cc1 [Nonoxinol 9]
number of strains inhibited out of the 32 tested (Gardnerella vaginalis; primary active principle 1.56 mg/l): 0
number of strains inhibited out of the 32 tested (Gardnerella vaginalis; primary active principle 3.125 mg/l): 0
number of strains inhibited out of the 32 tested (Gardnerella vaginalis; primary active principle 6.25 mg/l): 0
number of strains inhibited out of the 32 tested (Gardnerella vaginalis; primary active principle 12.5 mg/l): 0
number of strains inhibited out of the 32 tested (Gardnerella vaginalis; primary active principle 25 mg/l): 4
number of strains inhibited out of the 32 tested (Gardnerella vaginalis; primary active principle 50 mg/l): 6
number of strains inhibited out of the 32 tested (Gardnerella vaginalis; primary active principle 100 mg/l): 10
number of strains inhibited out of the 32 tested (Gardnerella vaginalis; primary active principle 200 mg/l): 25
number of strains inhibited out of the 32 tested (Gardnerella vaginalis; primary active principle 400 mg/l): 32
MIC (Pseudomonas aeruginosa [3]; + KATHON CG (1 mg/l) + LiF (1 mg/l), strain Tic R βLac^+): 64 µg/mL
MIC (Pseudomonas aeruginosa [3]; + KATHON CG (1 mg/l) + LiF (1 mg/l), strain Tic R βLac^+ OXA): 64 µg/mL
MIC (Pseudomonas aeruginosa [3]; + KATHON CG (1 mg/l) + LiF (1 mg/l), strain Tic R βLac^+ PSE): 64 µg/mL
MIC (Pseudomonas aeruginosa [3]; + KATHON CG (1 mg/l) + LiF (1 mg/l), strain Tic R βLac^+ TEM): 64 µg/mL
MIC (Pseudomonas aeruginosa [3]; + KATHON CG (1 mg/l) + LiF (1 mg/l), strain Tic R βLac^+ cephalosporinase): 128 µg/mL
MIC (Pseudomonas aeruginosa [3]; + KATHON CG (1 mg/l) + LiF (1 mg/l), strain Tic S βLac^-): 32 µg/mL
MIC (Pseudomonas aeruginosa [3]; alone, strain Tic R βLac^+): 128 µg/mL (≈ 208 µM)
MIC (Pseudomonas aeruginosa [3]; alone, strain Tic R βLac^+ OXA): 128 µg/mL (≈ 208 µM)
MIC (Pseudomonas aeruginosa [3]; alone, strain Tic R βLac^+ PSE): 64 µg/mL (≈ 104 µM)
MIC (Pseudomonas aeruginosa [3]; alone, strain Tic R βLac^+ TEM): 128 µg/mL (≈ 208 µM)
MIC (Pseudomonas aeruginosa [3]; alone, strain Tic R βLac^+ cephalosporinase): 256 µg/mL (≈ 415 µM)
MIC (Pseudomonas aeruginosa [3]; alone, strain Tic S βLac^-): 64 µg/mL (≈ 104 µM)

[Cl-].[Li+] [lithium chloride]
MIC (spermatozoa [2]; alone): 20 ppm
MIC, equivalent in % (spermatozoa [2]; alone): 0.002%

gentamicine
day the resistance appears ([4]; gentamicine alone): the third or fourth day
day the resistance appears ([4]; gentamicine with Fli (4 ppm)): the fourth or sixth day
optical density (1/100) (salmonella spirochete; 3 h 00, gentamicine 64 ppm): 8 1/100
optical density (1/100) (salmonella spirochete; 6 h 00, gentamicine 64 ppm): 7 1/100
optical density (1/100) (serratia marcescens [5]; 6 h 00, gentamicine 64 ppm): 5 1/100
optical density (1/100) (serratia marcescens [5]; 24 h 00, gentamicine 64 ppm): 4 1/100
MIC (serratia marcescens [6]; in presence of Fli at 8, SENSIBLE strains): 8 ppm or mg/l
MIC (serratia marcescens [6]; in presence of Fli at 16, RESISTANT strains): 32 ppm or mg/l
MIC (Pseudomonas aeruginosa [7]): 64 ppm or mg/l
MIC A/B (Klebsiella pneumoniae; [9]): 4 µg/mL
MIC alone (MIC A, MIC B) (Klebsiella pneumoniae; alone, wild-type hospital strain): 16 µg/mL
MIC A/B (Pseudomonas aeruginosa [8]; [9]): 16 µg/mL
MIC alone (MIC A, MIC B) (Pseudomonas aeruginosa [8]; alone, wild-type hospital resistant strain): 64 µg/mL
MIC A/B (proteus mirabilis; [9]): 16 µg/mL
MIC alone (MIC A, MIC B) (proteus mirabilis; alone, very resistant wild-type hospital strain): 64 µg/mL
